# Measurements taken from patent US10004754B2, “ANP fragment adjuvant therapy to standard of care (SOC) diuretic treatment” (MADELEINE PHARMACEUTICALS PTY LTD, priority 2014, dated 2018).
# Where two headings read alike, the source gives them in different places. Where no end group is shown, it is not given here.
# Columns and labels:
# [1] = test system: stable CHF patients; type: in vivo, human; details: for Diastolic Blood Pressure: baseline 65 ± 10; for Diastolic Blood Pressure / Systolic Blood Pressure: with SOC; for Systolic Blood Pressure: baseline 119 ± 15
# Protocol: VSDL in the form of a white lyophilised powder (synthesised using standard protein synthesis method by Auspep Pty Ltd, Parkville, VIC, Australia), stored in an ultra-low freezer (−80° C.), was reconstituted in a vial with 10 ml of 0.9% saline (preservative free) and aseptically transferred into a 20 ml syringe (that connects to a cannula) before use.
# A first study was conducted with a cohort of eight (8) test adult patients, both male and female, with a history of stable, chronic congestive heart failure and moderate renal impairment that had been selected on the basis of the following Inclusion and Exclusion criteria:
# All patients underwent existing standard of care (SOC) treatment for the condition for which they presented. These treatments were diuretic therapy (ie administration with furosemide or spironolactone) and an antihypertensive drug(s) (eg an Angiotensin Converting Enzyme (ACE) inhibitor, beta blocker agent and calcium channel blocker agent). […]
# [2] = test system: stable CHF patients; assay: Blood pressure during and after continuous sc VSDL infusion, Example 2; type: in vivo, human; details: for average drop in blood pressure, diastolic / average drop in blood pressure, systolic: during the 24 hour time period; for mean drop in blood pressure, diastolic / mean drop in blood pressure, systolic: throughout the 12 hour infusion period
# Protocol: (§1) A second study was conducted with a population of eighteen (18) test adult CHF patients, both male and female, in order to further evaluate the improvement in renal and cardiac function in stable CHF patients given VSDL (by sc administration) in addition to standard of care (SOC) treatment.
# (§2) Participants were selected on the basis of the Inclusion and Exclusion criteria given in Example 1. […] In addition, selected patients were required to have a plasma brain natriuretic peptide (BNP) concentration of ≥100 pg/mL and a GFR ≥25 mL/min and <70 mL/min as calculated by the Cockroft Gault calculation (ie moderate renal impairment). On the other hand, the presence of acute MI (ie as indicated by ST elevation and/or elevation of Troponin-T) or evidence of MI or other high risk acute coronary syndrome within the past 6 weeks, hypotension (ie systolic blood pressure (SBP) <90 mmHg), persistent and/or uncontrolled hypertension (SBP>180 mmHg), cardiogenic shock or any other clinical condition that would contraindicate administration of an agent with potent vasodilatory effects, excluded patients from participating in the study. Participants in this study also had standard exclusion criteria that accompany pulmonary artery (SG) catheterisation.
# (§3) The study was an open-label, sequential group, continuous sc infusion study conducted at a single centre. Two steady-state concentration levels (Css) of VSDL were targeted, approximately 10 ng/mL (n=2 lead-in, and n=10, cohort 1) and 20 ng/mL (n=6, cohort 2). The two lead-in patients were treated with similar dose regimens to confirm that the measured plasma concentrations were in agreement with the targeted Css. Two patients from cohort 1 and all 6 patients from cohort 2 underwent pulmonary artery Swan-Ganz (SG) catheterisation to enable haemodynamic monitoring.
# (§4) VSDL prepared as described in Example 1, was administered via sc 6 or 12 hour infusion into the lower abdomen at a maximum volume rate of 350 μL/hr (ie approximately 6 μL/min). The rate of infusion of VSDL for the targeted Css level of 10 ng/mL was either 900 μg/hr (0.3 mL/hr) for 12 hrs or a bimodal infusion of 900 μg/hr for 5 hrs followed by 550 μg/hr (0.18 mL/hr) for 7 hrs. The rate of infusion of VSDL for the targeted Css level of 20 ng/mL was bimodal; 1800 μg/hr (0.20 mL/hr) for 5 hrs followed by 1100 μg/hr (0.12 mL/hr) for 7 hrs (see WO 2014/138796). For the lead-in patients, the infusions were performed at 900 μg/hr for 6 hrs.
# (§5) R Studio (version 4) and GraphPad Prism (GraphPad Software, version 6) were used for all statistical analyses. Statistically significant changes from base line for all parameters were tested using with linear mixed effects model or one-way repeated measures ANOVA with Bonferroni correction. A p value of 0.05 was set for statistically significant differences. All data are reported as mean±s.d or mean (95% CI).
# [3] = test system: stable CHF patients; assay: Cardiovascular haemodynamics (Swan-Ganz catheterisation) with sc VSDL infusion, Example 2; type: in vivo, human; details: for Cardiac Output, Mean / Cardiac Output, Median: baseline 4.7; for systemic vascular resistance: baseline=3076+929
# Protocol: as §1, §2, §3, §4, §5
# [4] = test system: stable CHF patients; assay: Urine output and fractional excretion of sodium with sc VSDL infusion, Example 2; type: in vivo, human
# Protocol: as §1, §2, §3, §4, §5
# [5] = test system: patients showing either acute exacerbations of chronic CHF or ADCHF; details: cited from earlier work
# [6] = lead-in patients, 900 μg/hr sc for 6 hours, up to 24 hours post infusion
# [7] = patients with baseline blood pressures ≤105/60 mmHg, during the infusion
sequence,measurement,setting,value
EVVPPQVLSEPNEEAGAALSPLPEVPPWTGEVSPAQR [VSDL],Diastolic Blood Pressure,[1]; 10 ng/kg column,64 ± 7 mmHg
same,Systolic Blood Pressure,[1]; 10 ng/kg column,122 ± 10 mmHg
same,Diastolic Blood Pressure,[1]; 20 ng/kg column,65 ± 6 mmHg
same,Systolic Blood Pressure,[1]; 20 ng/kg column,115 ± 19 mmHg
same,symptomatic hypotension,"[1]; human, in vivo, sc",none of these resulted in symptomatic hypotension
same,change in systolic and diastolic blood pressures,"[1]; stable CHF patients, sc bolus VSDL with SOC, p < 0.05",significant drop
same,Diastolic Blood Pressure,"[2]; 10 ng/ml cohort, 0.5-6 hs, baseline 61 ± 8",64 ± 8 mmHg
same,Systolic Blood Pressure,"[2]; 10 ng/ml cohort, 0.5-6 hs, baseline 116 ± 10",121 ± 11 mmHg
same,Diastolic Blood Pressure,"[2]; 10 ng/ml cohort, >6-12 hs, baseline 61 ± 8",65 ± 7 mmHg
same,Systolic Blood Pressure,"[2]; 10 ng/ml cohort, >6-12 hs, baseline 116 ± 10",125 ± 10 mmHg
same,Diastolic Blood Pressure,"[2]; 10 ng/ml cohort, >12-24 hs, baseline 61 ± 8",62 ± 7 mmHg
same,Systolic Blood Pressure,"[2]; 10 ng/ml cohort, >12-24 hs, baseline 116 ± 10",118 ± 10 mmHg
same,"average drop in blood pressure, diastolic",[2]; 10 ng/ml cohort,−5 mmHg
same,"average drop in blood pressure, systolic",[2]; 10 ng/ml cohort,−8 mmHg
same,"mean drop in blood pressure, diastolic",[2]; 10 ng/ml cohort,−6 mmHg
same,"mean drop in blood pressure, systolic",[2]; 10 ng/ml cohort,−8 mmHg
same,Diastolic Blood Pressure,"[2]; 20 ng/ml cohort, 0.5-6 hs, baseline 71 ± 12",66 ± 6 mmHg
same,Systolic Blood Pressure,"[2]; 20 ng/ml cohort, 0.5-6 hs, baseline 124 ± 21",116 ± 17 mmHg
same,Diastolic Blood Pressure,"[2]; 20 ng/ml cohort, >6-12 hs, baseline 71 ± 12",67 ± 6 mmHg
same,Systolic Blood Pressure,"[2]; 20 ng/ml cohort, >6-12 hs, baseline 124 ± 21",118 ± 20 mmHg
same,Diastolic Blood Pressure,"[2]; 20 ng/ml cohort, >12-24 hs, baseline 71 ± 12",64 ± 6 mmHg
same,Systolic Blood Pressure,"[2]; 20 ng/ml cohort, >12-24 hs, baseline 124 ± 21",116 ± 21 mmHg
same,"average drop in blood pressure, diastolic",[2]; 20 ng/ml cohort,−8 mmHg
same,"average drop in blood pressure, systolic",[2]; 20 ng/ml cohort,−13 mmHg
same,"mean drop in blood pressure, diastolic",[2]; 20 ng/ml cohort,−7 mmHg
same,"mean drop in blood pressure, systolic",[2]; 20 ng/ml cohort,−14 mmHg
same,"drops in mean blood pressures from baseline, based on post infusion time","[2]; all VSDL-treated patients, p=0.4",no significant drops
same,"systolic and diastolic blood pressures, regression on concentration of VSDL","[2]; at higher VSDL concentrations, p=0.005, FIGS. 5A and B",significant decrease
same,change in blood pressure,"[2]; lead-in patients, 900 μg/hr sc for 6 hours",no significant change
same,mean diastolic blood pressure,[2]; [6],66±3 mmHg
same,mean systolic blood pressure,[2]; [6],114±6 mmHg
same,Diastolic Blood Pressure,"[2]; patients with BP ≤ 105 mmHg, 0.5-6 hs, baseline 57 ± 6",61 ± 7 mmHg
same,Systolic Blood Pressure,"[2]; patients with BP ≤ 105 mmHg, 0.5-6 hs, baseline 97 ± 8",106 ± 17 mmHg
same,Diastolic Blood Pressure,"[2]; patients with BP ≤ 105 mmHg, >6-12 hs, baseline 57 ± 6",64 ± 8 mmHg
same,Systolic Blood Pressure,"[2]; patients with BP ≤ 105 mmHg, >6-12 hs, baseline 97 ± 8",113 ± 25 mmHg
same,Diastolic Blood Pressure,"[2]; patients with BP ≤ 105 mmHg, >12-24 hs, baseline 57 ± 6",62 ± 6 mmHg
same,Systolic Blood Pressure,"[2]; patients with BP ≤ 105 mmHg, >12-24 hs, baseline 97 ± 8",109 ± 20 mmHg
same,drop in blood pressures,[2]; patients with baseline blood pressures ≤105/60 mmHg,no significant drop
same,"average blood pressure drop, diastolic",[2]; [7],−3 mmHg
same,"average blood pressure drop, systolic",[2]; [7],−4 mmHg
same,"Cardiac Output, Mean",[3]; >0.5-6 hrs,4.6 L/min
same,"Cardiac Output, Median",[3]; >0.5-6 hrs,4.2 L/min
same,"Cardiac Output, Mean",[3]; >6-12 hrs,4.9 L/min
same,"Cardiac Output, Median",[3]; >6-12 hrs,4.3 L/min
same,"Cardiac Output, Mean",[3]; >12-24 hrs,5.0 L/min
same,"Cardiac Output, Median",[3]; >12-24 hrs,4.4 L/min
same,pulmonary capillary wedge pressure,"[3]; adjuvant VSDL treatment, limited patient numbers to date",either decreased or unchanged
same,pulmonary vascular resistance,[3]; infusion of VSDL,no changes
same,increase in cardiac output on average above baseline (regression of cardiac output on time),"[3]; t=3.16, p≤0.05, FIG. 1",0.000472 L/min
same,systemic vascular resistance,[3]; ≥0.5-6 hs,2658+676 dyn·s/cm^5
same,systemic vascular resistance,[3]; ≥6-12 hs,2529+509 dyn·s/cm^5
same,systemic vascular resistance,[3]; ≥12-24 hs,2485+645 dyn·s/cm^5
same,mean urine output,[4]; 10 ng/ml cohort,2898 ± 334 mL
same,FENa (fractional excretion of sodium),"[4]; 10 ng/ml cohort, during infusion, baseline 2.2±0.3%, not statistically significant",3.3±0.8%
same,FENa (fractional excretion of sodium),"[4]; 10 ng/ml cohort, post infusion, baseline 2.2±0.3%",2.3±0.3%
same,mean urine output,[4]; 20 ng/ml cohort,3028 ± 301 mL
same,FENa (fractional excretion of sodium),"[4]; 20 ng/ml cohort, during infusion, baseline 1.6±0.3%",2.4±0.8%
same,FENa (fractional excretion of sodium),"[4]; 20 ng/ml cohort, post infusion, baseline 1.6±0.3%",1.6±0.4%
same,fluid output (urine volumes from baseline),[4]; patients treated with VSDL plus SOC,increased
same,patients with urine volumes above 3 liters/day,"[4]; pooled 10 and 20 ng/ml patients, FIG. 2",more than 50%
same,side-effects,"[5]; in vivo, iv",without side-effects
same,"outcomes (eg increased cardiac index, drops in pulmonary capillary wedge pressure and blood pressure)","[5]; iv infusion, even with very low doses, WO 2012/019237",improved outcomes
